Laboratory results from EP0275515B1, “Aqueous pharmaceutical composition” (DAIICHI PHARMACEUTICAL CO., LTD., priority 1986, dated 1988).

Experiments:
[1] = Acute toxicity in mice (intravenous LD50); conditions: mouse, in vivo, read-out: acute toxicity (LD₅₀, intravenous)
Experimental: It is to be noted that the acute toxicity of the S-compound in mice (LD₅₀, intravenous) is 244 mg/kg.

[2] = Storage stability of aqueous solution (residual concentration); assay type: physicochemical; conditions: 0.5 w/v% aqueous solution, pH range of 3 to 10, stored at 60°C for 1 or 2 weeks

Q: For C[C@H]1COc2c(N3CCN(C)CC3)c(F)cc3c(=O)c(C(=O)O)cn1c23 [S-compound, S-(-)-9-fluoro-3-methyl-10-(4-methyl-1-piperazinyl)-7-oxo-2,3-dihydro-7H-pyrido[1,2,3-de][1,4]benzoxazine-6-carboxylic acid], which LD50 [1] is on record?
A: The LD50 was 244 mg/kg.

Q: What about the residual concentrations [2] of the same molecule?
A: The residual concentrations was “stably remained without decomposition”.
